The text below walks through data of publication PMC12040169 (PLOS Biology, 2025).

This series in a line: in vitro. The following applies: human, hela cells, % viability.

What is called viability is a read-out of living cells in per cent, often relative to untreated cells. As for `O=C(O)CCCCCN1C(=O)C2CC=CCC2C1=O` (stereo not shown) [CBK286534], the viability at 28.5 h, 10 µM was 82.5%.
As for `COc1ccc(CNC(=O)c2cc(S(=O)(=O)N3CCCCC3)cs2)cc1` [CBK307590], the viability at 28.5 h, 10 µM is 85.9%.
On the same count and under the same terms, with `CC(C)CN1CC(C(=O)NCc2ccccc2-n2ccnc2)CC1=O` (stereo not shown) [CBK282189] the figure was 104%; with `O=C1NC2(CCc3ccccc31)CCN(C(=O)c1ccncc1)C2` (stereo not shown) [CBK283336], 90.9%.
In the case of `O=C(OCCc1c[nH]c2ccccc12)N1CCOCC1` [CBK200415], the viability at 28.5 h, 10 µM came out at 106%.
As for `CCn1c(SCC(=O)Nc2nc(C)c(C(=O)OC)s2)nc2c1c(=O)n(C)c(=O)n2C` [CBK127470], the viability at 28.5 h, 10 µM was 101%.
Consider `CNCCOc1ncccc1OCc1ccccc1` [CBK036306], for which the viability at 28.5 h, 10 µM turned out to be 100%.
Regarding `COc1cc(-c2nccnc2NCc2ccccn2)cc(OC)c1OC` [CBK036936], the viability at 28.5 h, 10 µM was 96.8%.
For `CN(C)CC1CCCCN1S(=O)(=O)c1ccc(C(C)(C)C)cc1` (stereo not shown) [CBK051347], the viability at 28.5 h, 10 µM turned out to be 108%.
Take `CC(C)(C)OC(=O)N1CCC2(CC1)OCc1cc(Br)ccc1O2` [CBK092251]: the viability at 28.5 h, 10 µM (bulk resorufin, single well) amounted to 99.4%.
For the compound `CS(=O)(=O)N1CCN(c2ccc(NC(=O)COc3ccc4ccccc4c3)cc2)CC1` [CBK266450], the viability at 28.5 h, 10 µM came out at 96.8%.
On the same count and under the same terms, with `COC(=O)c1ccccc1S(=O)(=O)Nc1nnn[nH]1` [CBK021321] the figure was 97.8%.
The same measure, in the same setting: under `O=C(c1ccc2ncsc2c1)N1CCN(S(=O)(=O)c2ccc(C(F)(F)F)cc2)CC1` [CBK295285] stands 98.2%; under `O=C(Nc1cccc(OCc2ccccc2)c1)c1cnc(-c2ccc(Cl)cc2)c(-c2ccco2)c1` [CBK037429], 93.9%.
On to `CC(=O)c1cccc(NC(=O)CCCn2cc([N+](=O)[O-])cn2)c1` [CBK268911], for which the viability at 28.5 h, 10 µM came to 82.8%.
`COCCCNC(=O)Cn1ccc2ccnc(-c3cccs3)c21` [CBK282303]: the viability at 28.5 h, 10 µM was found to be 109%.
Take `COc1cccc(C(=O)Nc2nc3ccc(F)cc3s2)c1` [CBK287342]: the viability at 28.5 h, 10 µM was 86.9%.
As to `Cc1c(C(=O)NCCCN2CCOCC2)oc2c1C(=O)CCC2` [CBK270207], the viability at 28.5 h, 10 µM is 93.1%.
On the same count and under the same terms, under `CCOc1cc2c(cc1OCC)C(c1ccc(OC)c(O)c1)NCC2` (stereo not shown) [CBK074443C] stands 88.7%.
Consider `COc1cccc(CN2CCC3(CC2)c2[nH]c4ccc(OCc5ccccc5)cc4c2CCN3C=O)c1` [CBK040462], for which the viability at 28.5 h, 10 µM turned out to be 101%.
`CS(=O)(=O)c1ccc(-c2c[nH]c([C@@H]3COCCN3Cc3ccccc3)n2)cc1` [CBK289300]: the viability at 28.5 h, 10 µM is 83.1%.
The same measure, in the same setting: with `COCc1nc2ccccc2n1CC(=O)N1CCC(c2ccccc2)C1` (stereo not shown) [CBK282211] the figure was 97.1%; with `CCN(CC)CCN1C(=O)C(O)=C(C(=O)c2ccc3c(c2)OCO3)C1c1cccnc1` (stereo not shown) [CBK266465], 99.6%.
Still for that read-out and setting: with `CC(=O)c1cccc(NC(=O)c2cccn(Cc3ccc(C)cc3)c2=O)c1` [CBK294427] the figure was 114%; with `CC(=O)Nc1ccc(S(=O)(=O)N2CCN(C(=O)COc3ccc(Br)cc3)CC2)cc1` [CBK264234], 94.1%; with `CC(=O)Nc1ccc(NC(=O)c2cnc(-c3ccc(F)cc3)c(-c3ccco3)c2)cc1` [CBK037977], 98.8%.
The same measure, in the same setting: with `COc1ccc(C(C)C)cc1-c1cncc(N2CCCCC2CCO)n1` (stereo not shown) [CBK037897] the figure was 94.4%; with `Cc1ccc(S(=O)(=O)Nc2ccccc2C(N)=O)cc1` [CBK056893], 76%.
On to `C=CCn1c(SCC(=O)Nc2cccc(C(F)(F)F)c2)nnc1C12CC3CC(CC(C3)C1)C2` [CBK266054], for which the viability at 28.5 h, 10 µM turned out to be 105%.
As to `COc1ccccc1CC(=O)N(Cc1nc(-c2cccc(C)c2)no1)C(C)C` [CBK269345], the viability at 28.5 h, 10 µM is 95.7%.
Regarding `COCCOc1ccc(-c2noc([C@@H]3CCCN3)n2)cn1` [CBK288883], the viability at 28.5 h, 10 µM stood at 97.4%.
Still for that read-out and setting: with `O=C(CN1CCCCCC1)N1CCCC1c1n[nH]cc1-c1cccc(Cl)c1` (stereo not shown) [CBK283084] the figure was 94.7%.
With `NC(=O)c1cccc(-c2cnc(N)c(N3CCC[C@@H]3CO)n2)c1` [CBK063458], the viability at 28.5 h, 10 µM amounted to 99.5%.
Same read-out and setting: with `Cc1c(C(=O)O)sc2ncn(CCCOc3ccc(Cl)cc3)c(=O)c12` [CBK286695] the figure was 106%.
Turning to `CCOC(=O)C1CCN(C(=O)c2cccnc2NCc2ccc3c(c2)OCO3)CC1` [CBK160106], the viability at 28.5 h, 10 µM came to 118%.
As for `COC(=O)c1cccc(OCC(O)Cn2ccnc2)c1` (stereo not shown) [CBK307408], the viability at 28.5 h, 10 µM stood at 102%.
Turning to `c1ccc(Oc2cccc(OCCCCN3CCNCC3)c2)cc1` [CBK266027G], the viability at 28.5 h, 10 µM came to 92.6%.
In the case of `Cc1ccc(NC(=O)c2ccccc2OCC(=O)NC23CC4CC(CC(C4)C2)C3)cc1Cl` [CBK265091], the viability at 28.5 h, 10 µM was 101%.
In the case of `CCCCC(=O)Nc1ccc(C(=O)N2CCN(C)CC2)cc1` [CBK304662], the viability at 28.5 h, 10 µM came out at 105%.
As for `CC(NC(=O)COc1ccc(Cl)cc1)C(=O)O` (stereo not shown) [CBK262112], the viability at 28.5 h, 10 µM was 90.7%.
The same measure, in the same setting: under `COc1ccc(OCC(=O)N/N=C/c2ccc([N+](=O)[O-])s2)c(I)c1` [CBK261374] stands 93.1%; under `COc1cccc([C@H]2CN(C(=O)c3ccccc3)[C@@H]3CCN(Cc4cccc(F)c4)C[C@H]23)c1` [CBK285626], 92.6%; under `Cc1ccc2nc(-c3ccc(N4C(=O)CC(N5CCN(CCOCCO)CC5)C4=O)cc3)sc2c1` (stereo not shown) [CBK265362], 86.1%.
As to `O=C(Cn1nnc2ccccc21)NCCN1CCCC1` [CBK267200], the viability at 28.5 h, 10 µM came to 106%.
In the case of `Cc1cc(C)c2c(N)c(-c3ccncc3)sc2n1` [CBK288189], the viability at 28.5 h, 10 µM was 88.7%.
In the case of `CC(=O)Nc1ccc(Nc2ccc([N+](=O)[O-])cc2[N+](=O)[O-])cc1` [CBK260886], the viability at 28.5 h, 10 µM came out at 84.6%.
For the compound `CSc1ccc(-c2cnc(N)c3ncccc23)cc1` [CBK067584], the viability at 28.5 h, 10 µM stood at 68.4%.
For the compound `Cn1c(N2CCCC(C(=O)NCC3CC3)C2)nc2ccccc21` (stereo not shown) [CBK283987], the viability at 28.5 h, 10 µM is 92.6%.
Consider `COc1ccc(-c2c[nH]c([C@@H]3COCCN3Cc3csnn3)n2)cc1` [CBK289297], for which the viability at 28.5 h, 10 µM amounted to 97.5%.
For the compound `CCn1c(-c2ccc3c(c2)OCCO3)cnc1SCC(=O)c1cc(C)[nH]c1C` [CBK297880], the viability at 28.5 h, 10 µM amounted to 89.4%.
Consider `N/N=C1\C2CN3CCN(C2)CC1(Cc1ccccc1)C3` [CBK261977], for which the viability at 28.5 h, 10 µM is 91.8%.
For `Cc1cc(C[C@@H]2CCC[C@H]2NCc2cc(Cl)ccc2O)on1` [CBK282997], the viability at 28.5 h, 10 µM turned out to be 103%.
With `Cc1nc(C)c(C(=O)N2CCC(c3cc4cccnc4[nH]3)CC2)s1` [CBK284998], the viability at 28.5 h, 10 µM worked out at 88.5%.
On to `O=C(O)c1ccc(NS(=O)(=O)c2ccc3c(c2)OCCO3)cc1` [CBK296129], for which the viability at 28.5 h, 10 µM was 108%.
For `Cc1cc(C)n2nc(C(=O)N3CCCC34CC=CC4)cc2n1` [CBK282815], the viability at 28.5 h, 10 µM came to 88.7%.
For the compound `CCOC(=O)c1sc(-c2cccc(C(F)(F)F)c2)nc1O` [CBK075064], the viability at 28.5 h, 10 µM was found to be 92%.
Same read-out and setting: with `CC(Oc1ccc(Cl)cc1Cl)C(=O)Nc1ccc(OCC(=O)O)cc1` (stereo not shown) [CBK266542] the figure was 98.8%; with `O=C(Nc1c(F)cc(F)cc1OC1CCNCC1)c1ccnc2ccccc12` [CBK050277T], 94.9%; with `COC(=O)C1CCN(C(=O)c2ccc(Oc3cccc(Br)c3)nc2)CC1` [CBK304235], 103%.
On to `COc1ccc(CN2CCC(Cc3ccccc3-c3cccc(F)c3)(C(N)=O)CC2)cc1` [CBK286277], for which the viability at 28.5 h, 10 µM amounted to 99.8%.
With `O=C(O)CNS(=O)(=O)c1ccc(F)cc1` [CBK034464], the viability at 28.5 h, 10 µM came out at 122%.
Turning to `Cc1nc2nc(N)nn2c(C)c1CCC(=O)NCCc1ccccc1` [CBK304989], the viability at 28.5 h, 10 µM worked out at 89.5%.
The same measure, in the same setting: under `O=C(NCc1n[nH]c(=O)c2ccccc12)Nc1ccc(F)cc1` [CBK287744] stands 94.2%.
On the same count and under the same terms, with `O=C(Cc1ccc(Br)cc1)N1CCC(Cc2ccccc2)CC1` [CBK058493] the figure was 96.7%; with `COc1cccc(OCCN2CCC3(C2)NCCc2c3[nH]c3cc(OC)ccc23)c1` (stereo not shown) [CBK061794], 94.3%.
Take `CC(=O)Nc1nc2[nH]c(C)c(Cc3ccccc3)c(=O)n2n1` [CBK288202]: the viability at 28.5 h, 10 µM was 89%.
Consider `COc1ccc(Oc2nccnc2N2CCN(Cc3ccc(Cl)c(Cl)c3)CC2)cc1OC` [CBK083038T], for which the viability at 28.5 h, 10 µM stood at 91.8%.
On to `Nc1ccc(-c2cncc(NCCc3ccccn3)n2)cc1` [CBK065632], for which the viability at 28.5 h, 10 µM worked out at 103%.
As to `O=c1ccnc(SCc2cccc(Cl)c2)[nH]1` [CBK288123], the viability at 28.5 h, 10 µM was determined as 100%.
For the compound `c1csc(-c2nccnc2NCCc2ccncc2)c1` [CBK036764], the viability at 28.5 h, 10 µM was found to be 108%.
Same read-out and setting: under `COc1ccc(NC(=O)CC(CN2CCN(c3ccc(Cl)cc3)CC2)C(=O)O)cc1` (stereo not shown) [CBK286831] stands 101%; under `Cc1ccc(Cc2c(C)nc(N3CCN(Cc4ccccc4)CC3)[nH]c2=O)cc1` [CBK270170], 115%.
For the compound `O=C(O)c1cccc(-c2nc(-c3ccc(S(=O)(=O)N4CCOCC4)cc3)cs2)c1` [CBK297730], the viability at 28.5 h, 10 µM turned out to be 85.8%.
Turning to `c1ccc(Nc2nc(-c3cccs3)cn3ccnc23)cc1` [CBK066513], the viability at 28.5 h, 10 µM amounted to 83.7%.
For the compound `Cn1cccc1CN1C[C@H]2CC[C@]3(NC(=O)c4ccccc4N3)[C@H]2C1` [CBK284443], the viability at 28.5 h, 10 µM came out at 97.7%.
With `Cc1cc(C)n(C)c(=O)c1C(=O)NC(C)Cc1ccccn1` (stereo not shown) [CBK283063], the viability at 28.5 h, 10 µM worked out at 105%.
As to `O=C(CN(c1cccc(Cl)c1)S(=O)(=O)c1ccc(Cl)cc1)NCc1ccco1` [CBK265356], the viability at 28.5 h, 10 µM turned out to be 106%.
Turning to `N/C(=N\OC(=O)c1ccccc1CCc1ccccc1)c1cccnc1` [CBK268188], the viability at 28.5 h, 10 µM was found to be 91.5%.
Turning to `CC(C)NC(=O)CN(C)Cc1nc(-c2cccc(C(F)(F)F)c2)no1` [CBK306036], the viability at 28.5 h, 10 µM stood at 72.2%.
